Measurements taken from patent US20070275953A1 (priority 2003, published 2007).
Where two headings read alike, the source gives them in different places.

Columns and labels:
Type in all cases: cell-based
[1] = test system: HIV-1 with WT (wild type) RT in P4 cells; experiment: Anti-HIV assay on P4 cell line, WT RT; settings: for EC50 / SI (selectivity index = CC50/EC50): P4 cell line, WT RT; for EC50: read-out: EC50 WT
Method: For the antiviral and the cytotoxicity assays, the drugs were diluted in complete DMEM medium. In these experiments, drugs were diluted in triplicate wells in a 96-well plate in six, 5 fold serial dilutions.
Two days later, co-cultivation with SupT1 cells (a human T-cell lymphoma cell line) was initiated to facilitate rapid production of progeny virions. Production of virus was measured by using the Innotest HIV Antigen mAb p24 kit (Innogenetics). At the peak of production cultures were harvested and filtered. The virus stocks were stored at −80° C. until used.
Anti-HIV activity and cytotoxicity of the compounds were tested on a P4 cell line. […] The P4 cells were cultured in complete DMEM medium supplemented with 10% fetal bovine serum (FBS), 0.5% of Penicillin/Streptomycin and G418 at 0.5 mg/ml. Exponentially growing cells were trypsinized, centrifuged and split twice weekly at 5.10^4 cells/ml.
The P4 cells are HIV-infectible Hela-CD4 cells that carry the bacterial lacZ gene under the control of the HIV-1 long terminal repeat (LTR). In this cell line, transcription of the LacZ gene is driven by the HIV-1 LTR. […] In other words, in this system, the expression level of the β-galactosidase gene is proportional to the viral replication.
Briefly, in the anti-HIV assay 100 Ål of P4 cells were plated in 96-well plate at a concentration of 0.4 10^5 cells/ml and incubated at 37° C., 5% CO2. After 48 h, the medium was removed and 100 Ål of the different drugs dilutions were added to the cells. Four hours after the addition of the drugs all cells were infected with equal amount of cell-free virus, corresponding to 100 ng of HIV p24 antigen. After 48 h of incubation at 37° C., 5% CO2, β-galactosidase activity was measured using chlorophenol red-β-D-galactopyranoside assays.
Each assay was performed a minimum of three times. The 50% effective concentration (Ec50) was calculated from each dose response curve using the CurveExpert 1.3 software.

[2] = test system: HIV-1 mutant Cys181RT in TZM-bl cells; experiment: Anti-HIV assay on TZM-bl cells, Cys181RT mutant; settings: read-out: EC50 Cys181RT TZM-bl
Source text: (§1) In order to introduce mutation(s) at the level of the pol gene coding for the RT in the pNL4-3 plasmid containing the complete viral genome (Adachi et al., 1986. J. Virol., Vol. 59 p 284-291) we used the “Quick change mutagenesis kit” (Stratagene). The following mutations were separately introduced in pNL4-3: L100I, K103N, V108I, Y181C, Y188C, and the double mutations K103N/V108I. These mutations were chosen because of the resistance that they confer to existing NNRTI. The production procedure of the mutant viral stocks is identical to the one described above.
(§2) Anti-HIV activity and cytotoxicity of the compounds were tested on the TZM-b1 cell line. The TZM-b1 cell line (Wei et al. 2002. Antimicrob. Agents Chemother. Vol. 46, p 1896-1905) was received from the NIH AIDS Research and Reference Reagent Program. These cells were cultured in complete DMEM medium supplemented with 10% fetal bovine serum (FBS), and 1% Penicillin/Streptomycin. Exponentially growing cells were trypsinized, centrifuged and split twice weekly at 5 10^4 cells/ml.
(§3) The anti-HIV assay with TZM-b1 cells is essentially the same as described above with P4 cells. The main difference between the two cell lines is that the TZM-b1 cells express at their surface both the CD4 and CCR5 proteins, acting as receptor and co-receptor for HIV entry, respectively (Wei et al. 2002. Antimicrob. Agents Chemother. Vol. 46, p 1896-1905). This feature makes the cells very sensitive to infection by the virus. The TMZ-b1 cells were infected with equal amount of cell-free virus, corresponding to 10 ng of HIV p24 antigen. This amount is ten times lower than the amount used to infect the P4 cells.

[3] = test system: HIV-1 mutant Cys181RT in MT4 cells; experiment: Anti-HIV assay on MT4 cells, Cys181RT mutant
Source text: as §1
Anti-HIV activity of the compounds was tested on MT-4 cell line. The MT-4 cell line (Larder et al. 1989. Sciences, Vol. 243 p 1731) was received from the NIH AIDS Research and Reference Reagent Program. These cells were cultured in RPMI medium supplemented with 10% fetal bovine serum (FBS), and 1% Penicillin/Streptomycin. The cultures were split regularly to keep cells densities between 0.3 to 1.2 10^6 cells/ml.
The MT-4 cells rapidly die upon infection by HIV. In this system there is an inverse correlation between cells survival and the amount of viral replication.
Briefly, in the anti-HIV assay exponentially growing MT-4 cells were infected with HIV-1. 100 μl of infected MT-4 cells were seeded in 96-well plate at a concentration of 0.4 10^5 cells/ml, and 100 μl of the different drugs dilutions were added to the cells. After 4 days of incubation at 37° C., 5% CO2, cells survival was measured using MTS (3-(4-5-dimethylthiazol-2-yl)-5-(−(3-carboxymethoxyphenyl)-2-(4-sulfophenyl)-2H-tetrazolium) assays. This compound is reduced by viable cells in a colored soluble formazan salt.
The absorbance was measured on a Benchmark™ Microplate Reader (Biorad) (λ=490 nm) and compared with 12 cell control replicates (nor virus nor drug added) and 12 virus control wells (no drug added). Each assay was performed a minimum of three times. The 50% effective concentration (EC50) was calculated from each dose response curve using the CurveExpert 1.3 software.

[4] = test system: HIV-1 mutant Asn103RT in TZM-bl cells; experiment: Anti-HIV assay on TZM-bl cells, Asn103RT mutant; settings: read-out: EC50 Asn103RT TZM-bl
Source text: as §1, §2, §3

[5] = Human immunodeficiency virus 1, TZM-bl
[6] = Human immunodeficiency virus 1, MT4, read-out: EC50 Cys181RT MT4

SMILES	antiviral activity compared with Z37A or the mixture of stereoisomers [1]	EC50 [1] [nM]	EC50 ([2]; TZM-bl, mutant Cys181RT) [nM]	EC50 ([1]; Human immunodeficiency virus 1) [nM]	EC50 [2, 5] [nM]	EC50 [3, 6] [nM]	EC50 [4, 5] [nM]	SI (selectivity index = CC50/EC50) [1]	EC50 Cys181RT MT4 ([3]; MT4, mutant Cys181RT)	EC50 ([4]; TZM-bl, mutant Asn103RT) [nM]	EC50 ([3]; MT4, mutant Cys181RT, read-out: EC50 Cys181RT MT4) [nM]
CCOC(=O)c1c(OC2CC(C)CC(C)C2)c(CC)c(C)[nH]c1=O (single isomer, unassigned) [Z37inv]	higher than the activity observed for either Z37A or the mixture of stereoisomers	36	2540	–	–	–	–	–	–	–	–
O=C1Nc2ccc(Cl)cc2[C@@](C#CC2CC2)(C(F)(F)F)O1 [Efavirenz, reference compound]	–	–	–	< 1	< 1	< 1	35	–	–	–	–
Cc1ccnc2c1NC(=O)c1cccnc1N2C1CC1 [Nevirapine, reference compound]	–	–	–	29	8300	–	2100	3448	Inactive	–	–
CCc1c(C)[nH]c(=O)c(CO)c1OC1CC(C)CC(C)C1 (centres unmarked) [Z45inv]	–	23	3200	–	–	–	–	–	–	–	–
CCc1c(C)[nH]c(=O)c([N+](=O)[O-])c1OC1CC(C)CC(C)C1 (centres unmarked) [Z91inv, 3-nitro-5-ethyl-6-methyl-4-[(3,5-dimethylcyclohexyl)oxy]pyridine-2(1H)-one]	–	–	–	< 1	58	2440	355	>37200	–	–	–
CCc1c(C)[nH]c(=O)c(CSC(C)=O)c1OC1CC(C)CC(C)C1 (centres unmarked) [Z114]	–	7	411	–	–	–	–	–	Inactive	584	–
CCc1c(C)[nH]c(=O)c(N(C)C)c1OC1CC(C)CC(C)C1 (centres unmarked) [Z150, 3-(dimethylamino)-5-ethyl-6-methyl-4-[(3,5-dimethylcyclohexyl)oxy]pyridine-2(1H)-one]	–	–	–	< 1	86	320	11	>66000	–	–	–
CCc1c(C)[nH]c(=O)c(CN=[N+]=[N-])c1OC1CC(C)CC(C)C1 (centres unmarked) [Z153]	–	< 1	83	–	–	–	–	–	–	42	780
CCc1c(C)[nH]c(=O)c(C)c1OC1CC(C)CC(C)C1 (centres unmarked) [Z154]	–	< 1	288	–	–	–	–	–	–	29	–
